{
  "source": "patent US20240230626A9",
  "about": "“METHOD FOR SCREENING POTENTIAL THERAPEUTIC AGENTS” (UNIVERSITEIT ANTWERPEN, priority 2021, published 2024)",
  "test_system": "hPSC21/MiaPaca2 co-culture",
  "experiment": "Co-culture of RFP-labelled MiaPaca2 cancer cells and GFP-labelled hPSC21 stellate cells, kinetic fluorescence imaging",
  "type": "cell-based, Human",
  "text": "Pancreatic ductal adenocarcinoma (PDAC) MiaPaca2 cancer cells were transduced with Nuclight Red lentiviral reagent to stably express RFP. Human pancreatic stellate cells 21 (hPSC21) were transduced with the Nuclight Green lentiviral reagent to stably express GFP. Both cell lines were cultures in a 2:1 hPSC21/MiaPaca2 ratio in a 384-well ultra-low attachment plate and treated with the Rho-kinase inhibitor Y-27632, an inducer of a cancer associated fibroblast (CAF) like phenotype of stellate cells (Li et al., Aging, 2020). The cells were incubated at 37° C./5CO2 in the Tecan Spark Cyto multimode plate reader with imaging capabilities and BF, red and green fluorescent images were taken every hour for 48 hours.",
  "data": [
    {"smiles": "C[C@@H](N)[C@H]1CC[C@H](C(=O)Nc2ccncc2)CC1", "note": "[Y-27632]", "values": [
      {"measurement": "morphology versus control sample", "setting": "2:1 hPSC21/MiaPaca2, 384-well ultra-low attachment plate, imaged every hour for 48 hours (FIG. 7D)", "value": "activation and migration of hPSC21 towards the PDAC cancer cells"},
      {"measurement": "velocity of the objects inside the well", "setting": "2:1 hPSC21/MiaPaca2 co-culture, imaged every hour for 48 hours (FIG. 7B)", "value": "increased"},
      {"measurement": "number of merges of the objects inside the well", "setting": "2:1 hPSC21/MiaPaca2 co-culture, imaged every hour for 48 hours (FIG. 7C)", "value": "increased"}
    ]}
  ]
}
